Experimental data reported in the NIST ThermoML archive (doi:10.1007/s10765-005-5567-5).

Conditions: Liquid; for thermal conductivity: Coaxial cylinder method; for viscosity: Capillary tube (Ostwald / Ubbelohde) method

O [water]
Conditions	thermal conductivity [W/m/K]	viscosity [mPa·s]
298.3 K, 100 kPa	0.607	–
298.3 K, 10000 kPa	0.613	–
298.3 K, 30000 kPa	0.623	–
299.76 K, 100 kPa	–	0.8591
299.76 K, 10000 kPa	–	0.8561
299.76 K, 30000 kPa	–	0.8551
313.1 K, 100 kPa	0.629	–
313.1 K, 10000 kPa	0.634	–
313.1 K, 30000 kPa	0.644	–
315.62 K, 100 kPa	–	0.6245
315.62 K, 10000 kPa	–	0.6234
315.62 K, 30000 kPa	–	0.6292
328.37 K, 100 kPa	–	0.5
328.37 K, 10000 kPa	–	0.503
328.37 K, 30000 kPa	–	0.5071
333.3 K, 100 kPa	0.651	–
333.3 K, 10000 kPa	0.656	–
333.3 K, 30000 kPa	0.666	–
347.95 K, 100 kPa	–	0.3761
347.95 K, 10000 kPa	–	0.3803
347.95 K, 30000 kPa	–	0.3872
352.9 K, 100 kPa	0.667	–
352.9 K, 10000 kPa	0.672	–
352.9 K, 30000 kPa	0.682	–
363.4 K, 100 kPa	0.673	–
363.4 K, 10000 kPa	0.678	–
363.4 K, 30000 kPa	0.689	–
375.85 K, 10000 kPa	–	0.2772
375.85 K, 30000 kPa	–	0.2833
393.1 K, 10000 kPa	0.689	–
393.1 K, 30000 kPa	0.702	–
403.95 K, 10000 kPa	–	0.2131
403.95 K, 30000 kPa	–	0.2181
423.3 K, 10000 kPa	0.691	–
423.3 K, 30000 kPa	0.704	–
431.43 K, 10000 kPa	–	0.1738
431.43 K, 30000 kPa	–	0.1786
448.7 K, 10000 kPa	0.685	–
448.7 K, 30000 kPa	0.699	–
474.3 K, 10000 kPa	0.672	–
474.3 K, 30000 kPa	0.689	–
476.4 K, 10000 kPa	–	0.1326
476.4 K, 30000 kPa	–	0.1375
499.3 K, 10000 kPa	0.652	–
499.3 K, 30000 kPa	0.672	–
502.75 K, 10000 kPa	–	0.1189
502.75 K, 30000 kPa	–	0.1239
523.4 K, 10000 kPa	0.624	–
523.4 K, 30000 kPa	0.649	–
524.75 K, 10000 kPa	–	0.1081
524.75 K, 30000 kPa	–	0.1132
548.4 K, 10000 kPa	0.591	–
548.4 K, 30000 kPa	0.622	–
549.5 K, 10000 kPa	–	0.0961
549.5 K, 30000 kPa	–	0.1011
573.5 K, 10000 kPa	0.547	–
573.5 K, 30000 kPa	0.588	–
574.54 K, 10000 kPa	–	0.0851
574.54 K, 30000 kPa	–	0.0918
